In ChEMBL document CHEMBL5291721, “A preclinical secondary pharmacology resource illuminates target-adverse drug reaction associations of marketed drugs” (Nat Commun, 2023):

How the values were obtained:
Melanocortin receptor 3 = Melanocortin receptor 3 (Homo sapiens, UniProt P41968)
D(1A) dopamine receptor = D(1A) dopamine receptor (Homo sapiens, UniProt P21728); type: functional, cell-based
[1] = target: T1, 5-hydroxytryptamine receptor 1A (Homo sapiens, UniProt P08908); type: functional, cell-based
T1 sequence (P08908 whole entry): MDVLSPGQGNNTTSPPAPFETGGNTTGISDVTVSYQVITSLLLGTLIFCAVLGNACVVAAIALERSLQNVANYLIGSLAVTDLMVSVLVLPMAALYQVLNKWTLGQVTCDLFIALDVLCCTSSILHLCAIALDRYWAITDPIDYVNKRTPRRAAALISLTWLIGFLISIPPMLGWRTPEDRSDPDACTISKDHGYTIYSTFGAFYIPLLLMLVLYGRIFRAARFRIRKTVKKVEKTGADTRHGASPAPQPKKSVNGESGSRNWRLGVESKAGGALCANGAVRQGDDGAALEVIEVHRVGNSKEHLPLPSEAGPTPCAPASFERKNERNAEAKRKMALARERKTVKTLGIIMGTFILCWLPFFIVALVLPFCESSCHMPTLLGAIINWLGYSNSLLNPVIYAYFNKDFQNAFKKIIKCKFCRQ

Histamine H2 receptor = Histamine H2 receptor (Homo sapiens, UniProt P25021); type: functional, cell-based
Progesterone receptor = target: T2, Progesterone receptor (Homo sapiens, UniProt P06401); type: functional
T2 sequence (P06401 whole entry): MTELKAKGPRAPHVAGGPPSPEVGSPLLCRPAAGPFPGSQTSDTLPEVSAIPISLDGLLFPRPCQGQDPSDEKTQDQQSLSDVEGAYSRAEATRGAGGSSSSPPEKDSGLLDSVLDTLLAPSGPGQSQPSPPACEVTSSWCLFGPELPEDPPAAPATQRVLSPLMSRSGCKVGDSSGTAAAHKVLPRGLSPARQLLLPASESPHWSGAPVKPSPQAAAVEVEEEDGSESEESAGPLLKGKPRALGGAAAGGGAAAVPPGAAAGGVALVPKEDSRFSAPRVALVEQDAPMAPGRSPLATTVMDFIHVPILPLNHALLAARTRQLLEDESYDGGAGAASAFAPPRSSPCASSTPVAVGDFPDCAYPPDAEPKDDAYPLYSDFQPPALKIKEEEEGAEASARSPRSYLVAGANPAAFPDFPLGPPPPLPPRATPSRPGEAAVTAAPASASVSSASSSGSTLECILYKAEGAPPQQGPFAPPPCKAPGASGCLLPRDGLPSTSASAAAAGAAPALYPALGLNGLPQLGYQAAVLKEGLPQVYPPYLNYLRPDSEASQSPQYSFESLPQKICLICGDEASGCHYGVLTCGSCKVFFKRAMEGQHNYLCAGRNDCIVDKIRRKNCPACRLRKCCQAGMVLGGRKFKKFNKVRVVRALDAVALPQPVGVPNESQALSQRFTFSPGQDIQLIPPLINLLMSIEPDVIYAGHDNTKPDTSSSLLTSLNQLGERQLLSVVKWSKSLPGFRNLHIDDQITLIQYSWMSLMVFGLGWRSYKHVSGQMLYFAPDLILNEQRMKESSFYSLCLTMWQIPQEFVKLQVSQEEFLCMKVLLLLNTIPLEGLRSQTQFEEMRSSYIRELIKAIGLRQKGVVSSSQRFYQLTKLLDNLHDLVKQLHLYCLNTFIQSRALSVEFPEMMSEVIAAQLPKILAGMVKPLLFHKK

[2] = target: T3, Equilibrative nucleoside transporter 1 (Homo sapiens, UniProt Q99808)
T3 sequence (Q99808 whole entry): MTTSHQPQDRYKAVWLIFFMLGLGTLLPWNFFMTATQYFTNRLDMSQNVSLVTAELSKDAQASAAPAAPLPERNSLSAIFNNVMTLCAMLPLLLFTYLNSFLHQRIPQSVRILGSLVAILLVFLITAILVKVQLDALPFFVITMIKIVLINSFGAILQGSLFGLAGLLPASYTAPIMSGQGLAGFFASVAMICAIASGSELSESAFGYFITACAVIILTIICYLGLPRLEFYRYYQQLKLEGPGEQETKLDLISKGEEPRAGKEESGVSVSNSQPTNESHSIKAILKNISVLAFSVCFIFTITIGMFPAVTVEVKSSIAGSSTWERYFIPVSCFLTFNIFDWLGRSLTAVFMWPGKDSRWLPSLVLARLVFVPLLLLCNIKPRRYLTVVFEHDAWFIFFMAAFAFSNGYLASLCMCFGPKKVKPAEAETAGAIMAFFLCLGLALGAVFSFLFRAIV

Thromboxane A2 receptor = target: T4, Thromboxane A2 receptor (Homo sapiens, UniProt P21731)
T4 sequence (P21731 whole entry): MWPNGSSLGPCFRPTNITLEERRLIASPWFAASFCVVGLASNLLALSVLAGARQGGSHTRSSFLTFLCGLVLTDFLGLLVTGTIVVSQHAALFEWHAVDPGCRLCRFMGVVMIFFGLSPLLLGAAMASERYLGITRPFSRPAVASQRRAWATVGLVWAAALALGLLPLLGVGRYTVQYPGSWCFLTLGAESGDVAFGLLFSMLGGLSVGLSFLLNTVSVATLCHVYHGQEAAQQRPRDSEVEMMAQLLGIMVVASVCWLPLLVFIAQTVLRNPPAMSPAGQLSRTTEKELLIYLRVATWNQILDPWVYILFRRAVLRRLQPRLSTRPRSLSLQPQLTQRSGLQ

[3] = target: Gamma-aminobutyric acid receptor subunit alpha-1 (Rattus norvegicus, UniProt P62813)
[4] = target: T5, 5-hydroxytryptamine receptor 3A (Homo sapiens, UniProt P46098); type: functional
T5 sequence (P46098 whole entry): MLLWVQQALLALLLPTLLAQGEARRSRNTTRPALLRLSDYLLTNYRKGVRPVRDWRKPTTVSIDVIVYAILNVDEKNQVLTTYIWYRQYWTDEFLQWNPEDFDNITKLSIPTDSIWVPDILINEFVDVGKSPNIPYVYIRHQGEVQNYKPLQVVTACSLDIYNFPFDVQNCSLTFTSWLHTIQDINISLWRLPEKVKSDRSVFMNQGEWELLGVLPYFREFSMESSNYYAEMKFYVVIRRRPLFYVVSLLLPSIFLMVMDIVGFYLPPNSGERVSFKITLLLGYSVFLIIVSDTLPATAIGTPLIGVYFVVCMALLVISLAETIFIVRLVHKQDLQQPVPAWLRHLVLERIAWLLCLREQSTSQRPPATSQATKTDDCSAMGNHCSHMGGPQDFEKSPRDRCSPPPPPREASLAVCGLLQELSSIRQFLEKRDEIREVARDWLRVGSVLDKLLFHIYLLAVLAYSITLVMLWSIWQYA
Note: assay procedure not described here.

D(1A) dopamine receptor, sequence (P21728 whole entry): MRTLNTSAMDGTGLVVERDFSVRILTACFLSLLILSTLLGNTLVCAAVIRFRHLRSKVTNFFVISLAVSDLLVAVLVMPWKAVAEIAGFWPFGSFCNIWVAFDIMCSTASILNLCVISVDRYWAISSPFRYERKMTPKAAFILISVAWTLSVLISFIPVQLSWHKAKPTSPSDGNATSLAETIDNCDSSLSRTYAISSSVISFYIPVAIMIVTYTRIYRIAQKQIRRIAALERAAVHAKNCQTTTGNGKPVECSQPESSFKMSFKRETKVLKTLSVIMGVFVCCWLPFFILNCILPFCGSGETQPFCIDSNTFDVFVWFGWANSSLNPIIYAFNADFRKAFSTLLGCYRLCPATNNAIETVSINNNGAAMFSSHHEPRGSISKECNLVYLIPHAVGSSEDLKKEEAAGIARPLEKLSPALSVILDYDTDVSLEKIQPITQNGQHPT
Melanocortin receptor 3, sequence (P41968 whole entry): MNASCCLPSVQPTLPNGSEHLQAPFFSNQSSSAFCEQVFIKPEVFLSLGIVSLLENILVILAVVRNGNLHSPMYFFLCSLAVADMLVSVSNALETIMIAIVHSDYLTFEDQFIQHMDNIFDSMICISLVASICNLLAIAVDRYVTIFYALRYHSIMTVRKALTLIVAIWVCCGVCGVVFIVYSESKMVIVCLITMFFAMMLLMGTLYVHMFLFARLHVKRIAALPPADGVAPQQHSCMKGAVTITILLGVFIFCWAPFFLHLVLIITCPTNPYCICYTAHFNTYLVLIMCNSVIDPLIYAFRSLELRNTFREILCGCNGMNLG
Histamine H2 receptor, sequence (P25021 whole entry): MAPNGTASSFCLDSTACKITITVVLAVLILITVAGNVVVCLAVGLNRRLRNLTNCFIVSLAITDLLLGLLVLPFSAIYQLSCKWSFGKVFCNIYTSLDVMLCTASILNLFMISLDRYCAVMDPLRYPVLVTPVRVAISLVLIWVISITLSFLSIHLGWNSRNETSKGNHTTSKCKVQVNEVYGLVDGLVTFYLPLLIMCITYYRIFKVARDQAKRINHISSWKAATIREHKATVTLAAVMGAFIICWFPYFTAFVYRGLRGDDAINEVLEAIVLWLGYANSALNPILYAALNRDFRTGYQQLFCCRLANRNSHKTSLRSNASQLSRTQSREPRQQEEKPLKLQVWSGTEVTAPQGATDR
Gamma-aminobutyric acid receptor subunit alpha-1, sequence (P62813 whole entry): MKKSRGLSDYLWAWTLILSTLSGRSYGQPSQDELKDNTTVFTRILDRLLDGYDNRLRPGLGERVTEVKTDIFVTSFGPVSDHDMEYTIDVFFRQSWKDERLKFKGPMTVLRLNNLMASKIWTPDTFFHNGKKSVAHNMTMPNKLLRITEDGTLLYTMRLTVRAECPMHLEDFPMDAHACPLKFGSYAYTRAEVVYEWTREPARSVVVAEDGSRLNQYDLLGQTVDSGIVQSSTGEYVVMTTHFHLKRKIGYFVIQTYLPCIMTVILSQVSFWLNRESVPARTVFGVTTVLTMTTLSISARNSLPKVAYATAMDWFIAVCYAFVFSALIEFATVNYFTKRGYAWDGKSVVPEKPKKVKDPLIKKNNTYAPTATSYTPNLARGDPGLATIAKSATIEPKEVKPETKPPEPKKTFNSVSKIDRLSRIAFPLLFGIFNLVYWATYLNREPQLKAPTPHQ

| SMILES | AC50 (Melanocortin receptor 3) | AC50 (D(1A) dopamine receptor) | AC50 [1] | AC50 (Histamine H2 receptor) | AC50 (Progesterone receptor) | AC50 [2] | AC50 (Thromboxane A2 receptor) | AC50 [3] | AC50 [4] |
| --- | --- | --- | --- | --- | --- | --- | --- | --- | --- |
| CO/N=C(\C(=O)N[C@@H]1C(=O)N2C(C(=O)[O-])=C(C[n+]3ccc(N)n3CCO)CS[C@H]12)c1csc(N)n1 [CEFOSELIS] | > 30 µM | > 30 µM | > 30 µM | > 30 µM | > 30 µM | > 30 µM | > 30 µM | > 30 µM | > 30 µM |
| CN(C)CCOCC(=O)NC12CC3CC(CC(C3)C1)C2 [TROMANTADINE] | > 30 µM | > 30 µM | > 30 µM | > 30 µM | > 30 µM | > 30 µM | > 30 µM |  | > 30 µM |
| CC(C)CN(C[C@@H](O)[C@H](Cc1ccccc1)NC(=O)O[C@H]1CCOC1)S(=O)(=O)c1ccc(N)cc1 | > 30 µM | > 10 µM | > 10 µM | > 10 µM | > 10 µM | > 10 µM | > 30 µM | > 10 µM | > 30 µM |
| CC1=C(/C=C/C(C)=C/C=C/C(C)=C/C(=O)Oc2c(C)c(C)c3c(c2C)CCC(C)(CCCC(C)CCCC(C)CCCC(C)C)O3)C(C)(C)CCC1 (centres undefined) [TRETINOIN TOCOFERIL] | > 30 µM | > 30 µM | > 30 µM | > 30 µM | > 30 µM | > 30 µM | > 30 µM | > 30 µM | > 30 µM |
| CCN(CC)Cc1nccn1-c1ccc([N+](=O)[O-])cc1C(=O)c1ccccc1Cl [NIZOFENONE] | > 30 µM | > 30 µM | > 30 µM | > 30 µM | > 30 µM | > 30 µM | > 30 µM | > 30 µM | > 30 µM |
| CCCCOC(=O)C(=O)Nc1cccc(-c2nnn[nH]2)c1 [TAZANOLAST] | > 30 µM | > 30 µM | > 30 µM | > 30 µM | > 30 µM | > 30 µM | > 30 µM | > 30 µM | > 30 µM |
| CC(=O)Oc1cccc2c1C(=O)c1c(OC(C)=O)cc(C(=O)O)cc1C2=O [DIACEREIN] | > 30 µM | > 30 µM | 18 µM | > 30 µM | > 30 µM | 4.8 µM | > 30 µM | > 30 µM | > 30 µM |
| C[C@@H](Cc1ccccc1)N(C)Cc1ccccc1 [BENZPHETAMINE] | > 10 µM | > 10 µM | > 10 µM | > 10 µM | > 10 µM | > 30 µM | > 10 µM | > 10 µM | > 30 µM |
| COc1ccc(-n2nc(C(N)=O)c3c2C(=O)N(c2ccc(N4CCCCC4=O)cc2)CC3)cc1 [APIXABAN] | > 30 µM | > 30 µM | > 30 µM | > 30 µM | > 30 µM | 26 µM |  | > 30 µM | > 30 µM |
